Source: PubChem BioAssay AID282 (DTP/NCI, 2004)
Several values for one entry are separate records, joined by “and”; a condition that tells them apart may be missing. Identical values can stand only once. Toxic doses and inconclusive results are not listed. Starred links: 1 amine or outer side, 2 acyl side, 3 side chain; linkers in the order of their positions; H or OH if unused. Positions of bridges follow the written chain, without caps; N, C: chain ends. Non-standard residues stand in square brackets, D forms with d. Residues, ends and D or L forms follow the SMILES beside them. Chains are numbered I, II in the order given. Actinocin(9to1) = Cc1c2oc3c(C)ccc(C(=O)[*:1])c3nc-2c(C(=O)[*:2])c(N)c1=O; aThr = C[C@H](O)[C@H](N)C(=O)O; NMeV = CN[C@H](C(=O)O)C(C)C; Sar = CNCC(=O)O

System: BDF1 mice, L1210 terephthalanilide-resistant leukemia ip, survival T/C
Experiment: NCI In Vivo Anticancer Drug Screen. Data for tumor model L1210 Leukemia resistant to A Terephthalanilide; NSC 38280 (intraperitoneal) in B6D2F1 (BDF1) mice
Conditions: endpoint: mean survival time, higher = longer survival
Procedure: The antitumor activity of compounds was measured in mice bearing transplantable tumors. Survival or tumor size were measured and the results are expressed as the measurement made in the treated group (T) divided by the measurement made in the vehicle treated control group (C). The tumor model used in this assay is L1210 Leukemia resistant to A Terephthalanilide; NSC 38280 (intraperitoneal) in B6D2F1 (BDF1) mice

[1] = dose: 2.5 mg/kg/injection, schedule: Q01DX Z (ip), vehicle: carboxymethylcellulose (CMC)
[2] = dose: 7.5 mg/kg/injection, schedule: Q01DX Z (ip), vehicle: carboxymethylcellulose (CMC)
[3] = dose: 10.0 mg/kg/injection, schedule: Q01DX Z (ip), vehicle: carboxymethylcellulose (CMC)
[4] = dose: 25.0 mg/kg/injection, schedule: Q01DX Z (ip), vehicle: carboxymethylcellulose (CMC)
[5] = dose: 100.0 mg/kg/injection, schedule: Q01DX Z (ip), vehicle: carboxymethylcellulose (CMC)
[6] = dose: 12.5 mg/kg/injection, schedule: Q01DX010 (ip), vehicle: saline
[7] = dose: 25.0 mg/kg/injection, schedule: Q01DX010 (ip), vehicle: saline
[8] = dose: 50.0 mg/kg/injection, schedule: Q01DX010 (ip), vehicle: saline
[9] = dose: 50.0 mg/kg/injection, schedule: Q01DX Z (ip), vehicle: saline
[10] = dose: 75.0 mg/kg/injection, schedule: Q01DX Z (ip), vehicle: saline
[11] = dose: 6.25 mg/kg/injection, schedule: Q01DX010 (ip), vehicle: saline
[12] = dose: 20.0 mg/kg/injection, schedule: Q01DX010 (ip), vehicle: saline
[13] = dose: 62.5 mg/kg/injection, schedule: Q01DX010 (ip), vehicle: saline
[14] = dose: 125.0 mg/kg/injection, schedule: Q01DX010 (ip), vehicle: saline
[15] = dose: 250.0 mg/kg/injection, schedule: Q01DX010 (ip), vehicle: saline
[16] = dose: 30.0 mg/kg/injection, schedule: Q01DX010 (ip), vehicle: saline

`S=c1nc[nH]c2nc[nH]c12` was tested, and the T/C [1] was 120 % of control, the T/C [2] was 165 % of control and the T/C [3] was 172 % of control. For the same molecule, the T/C (dose: 12.5 mg/kg/injection, schedule: Q01DX Z (ip), vehicle: carboxymethylcellulose (CMC)) was 156 % of control, the T/C [4] was 152 % of control and the T/C (dose: 62.5 mg/kg/injection, schedule: Q01DX Z (ip), vehicle: carboxymethylcellulose (CMC)) was 120 % of control. For the same molecule, the T/C [5] was 107 % of control.

In the case of `COS(C)(=O)=O`, the T/C [6] is reported as 93 % of control, the T/C [7] is reported as 101 % of control and the T/C (dose: 25.0 mg/kg/injection, schedule: Q01DX Z (ip), vehicle: saline) is reported as 95 % of control. For the same molecule, the T/C [8] was 102 % of control, the T/C [9] was 101 % of control and the T/C [10] was 106 % of control. The T/C (dose: 100.0 mg/kg/injection, schedule: Q01DX010 (ip), vehicle: saline) was 100 % of control and the T/C (dose: 100.0 mg/kg/injection, schedule: Q01DX Z (ip), vehicle: saline) was 106 % of control.

For `CN(C)/N=N/c1nc[nH]c1C(N)=O`, the T/C [7] was 123 % of control and 101 % of control, the T/C [8] was 114 % of control and the T/C (dose: 200.0 mg/kg/injection, schedule: Q01DX010 (ip), vehicle: saline) was 102 % of control.

`N=[N+]=CC(=O)OCC(N)C(=O)O` (stereo not given) was tested, and the T/C (dose: 1.0 mg/kg/injection, schedule: Q01DX Z (ip), vehicle: carboxymethylcellulose (CMC)) was 122 % of control, the T/C (dose: 3.75 mg/kg/injection, schedule: Q01DX Z (ip), vehicle: carboxymethylcellulose (CMC)) was 168 % of control and the T/C (dose: 5.0 mg/kg/injection, schedule: Q01DX Z (ip), vehicle: carboxymethylcellulose (CMC)) was 171 % of control. For the same molecule, the T/C [11] was 156 % of control, the T/C [2] was 183 % of control and the T/C [3] was 174 % of control. For the same molecule, the T/C [6] was 118 % of control, the T/C [7] was 97 % of control and the T/C (dose: 30.0 mg/kg/injection, schedule: Q01DX Z (ip), vehicle: carboxymethylcellulose (CMC)) was 115 % of control.

`CC[n+]1ccccc1-c1ccc(NC(=O)c2ccc(C(=O)Nc3ccc(-c4ccccn4)cc3)cc2)cc1` was tested, and the T/C (dose: 2.5 mg/kg/injection, schedule: Q01DX010 (ip), vehicle: saline) was 115 % of control, the T/C (dose: 10.0 mg/kg/injection, schedule: Q01DX010 (ip), vehicle: saline) was 119 % of control and the T/C [12] was 92 % of control.

`c1ccc(CCSc2ncnc3nc[nH]c23)cc1` was tested, and the T/C [13] was 90 % of control, the T/C [14] was 104 % of control and the T/C [15] was 99 % of control.

With `O=C(Nc1cccc(C(=O)Nc2ccc(C3=NCCN3)cc2)c1)c1ccc(C2=NCCN2)cc1` the T/C (dose: 54.0 mg/kg/injection, schedule: Q01DX010 (ip), vehicle: saline) was 90 % of control.

In the case of `Cc1c2oc3c(C)ccc(C(=O)N[C@@H]4C(=O)N[C@H](C(C)C)C(=O)N5CCC[C@H]5C(=O)N(C)CC(=O)N(C)[C@@H](C(C)C)C(=O)O[C@H]4C)c3nc-2c(C(=O)N[C@@H]2C(=O)N[C@H](C(C)C)C(=O)N3CCC[C@H]3C(=O)N(C)CC(=O)N(C)[C@@H](C(C)C)C(=O)O[C@H]2C)c(N)c1=O` (I: [aThr][dV]P[Sar][NMeV] / II: [aThr][dV]P[Sar][NMeV]; ester I:1-I:C, II:1-II:C; linker I:N-II:N via Actinocin(9to1)), the T/C (dose: 12.5 micrograms/kg/injection, schedule: Q01DX010 (ip), vehicle: other) is reported as 117 % of control and 118 % of control, the T/C (dose: 25.0 micrograms/kg/injection, schedule: Q01DX010 (ip), vehicle: other) is reported as 121 % of control and 118 % of control and the T/C (dose: 50.0 micrograms/kg/injection, schedule: Q01DX010 (ip), vehicle: other) is reported as 124 % of control and 117 % of control. The T/C (dose: 100.0 micrograms/kg/injection, schedule: Q01DX010 (ip), vehicle: other) was 95 % of control and 103 % of control.

With `Nc1ncnc2[nH]ncc12` the T/C (dose: 1.5 mg/kg/injection, schedule: Q01DX010 (ip), vehicle: saline) was 103 % of control and 105 % of control, the T/C (dose: 3.0 mg/kg/injection, schedule: Q01DX010 (ip), vehicle: saline) was 103 % of control and 108 % of control and the T/C (dose: 6.0 mg/kg/injection, schedule: Q01DX010 (ip), vehicle: saline) was 107 % of control and 111 % of control. The T/C (dose: 12.0 mg/kg/injection, schedule: Q01DX010 (ip), vehicle: saline) was 102 % of control and the T/C [4] was 90 % of control.

In the case of `O=C(Nc1ccc(C2=NCCCN2)cc1)c1ccc(C(=O)Nc2ccc(C3=NCCCN3)cc2)cc1`, the T/C (dose: 1.0 mg/kg/injection, schedule: Q01DX010 (ip), vehicle: other) is reported as 113 % of control and 114 % of control, the T/C (dose: 2.0 mg/kg/injection, schedule: Q01DX010 (ip), vehicle: other) is reported as 116 % of control and the T/C (dose: 4.0 mg/kg/injection, schedule: Q01DX010 (ip), vehicle: other) is reported as 123 % of control and 120 % of control. The T/C (dose: 8.0 mg/kg/injection, schedule: Q01DX010 (ip), vehicle: other) was 90 % of control and 95 % of control.

For `Nc1nc2n[nH]nc2c(=O)[nH]1`, the T/C (dose: 6.25 mg/kg/injection, schedule: Q01DX Z (ip), vehicle: water) was 106 % of control, the T/C (dose: 12.5 mg/kg/injection, schedule: Q01DX Z (ip), vehicle: water) was 113 % of control and the T/C (dose: 400.0 mg/kg/injection, schedule: Q01DX Z (ip), vehicle: water) was 95 % of control.

With `C[C@H]1C(=O)O[C@@H]2CCN3CC=C(COC(=O)[C@](C)(O)[C@@]1(C)O)[C@H]23` the T/C (dose: 3.13 mg/kg/injection, schedule: Q01DX010 (ip), vehicle: saline) was 97 % of control, the T/C [11] was 102 % of control and the T/C [6] was 97 % of control and 106 % of control. For the same molecule, the T/C [7] was 103 % of control and 106 % of control, the T/C [4] was 107 % of control and the T/C [8] was 100 % of control. For the same molecule, the T/C (dose: 50.0 mg/kg/injection, schedule: Q01DX Z (ip), vehicle: carboxymethylcellulose (CMC)) was 100 % of control, the T/C [5] was 119 % of control and the T/C (dose: 200.0 mg/kg/injection, schedule: Q01DX Z (ip), vehicle: carboxymethylcellulose (CMC)) was 161 % of control.

`N#CCSc1ncnc2nc[nH]c12` was tested, and the T/C [4] was 122 % of control, the T/C [16] was 112 % of control and 113 % of control and the T/C (dose: 60.0 mg/kg/injection, schedule: Q01DX010 (ip), vehicle: saline) was 109 % of control and 115 % of control. The T/C [5] was 150 % of control and the T/C (dose: 120.0 mg/kg/injection, schedule: Q01DX010 (ip), vehicle: saline) was 91 % of control.

In the case of `CC/C(=C(/CC)c1ccc(O)cc1)c1ccc(O)cc1`, the T/C (dose: 12.5 mg/kg/injection, schedule: Q01DX010 (sc), vehicle: steriod suspending solution) is reported as 96 % of control and 102 % of control, the T/C (dose: 25.0 mg/kg/injection, schedule: Q01DX010 (sc), vehicle: steriod suspending solution) is reported as 89 % of control and 102 % of control and the T/C (dose: 50.0 mg/kg/injection, schedule: Q01DX010 (sc), vehicle: steriod suspending solution) is reported as 102 % of control and 103 % of control. The T/C (dose: 100.0 mg/kg/injection, schedule: Q01DX010 (sc), vehicle: steriod suspending solution) was 96 % of control and 98 % of control.

For `OCC1OC(n2cnc3c(Cl)ncnc32)C(O)C1O` (stereo not given), the T/C [13] was 90 % of control and 99 % of control, the T/C [14] was 96 % of control and 101 % of control and the T/C [15] was 97 % of control and 103 % of control. For the same molecule, the T/C (dose: 500.0 mg/kg/injection, schedule: Q01DX010 (ip), vehicle: saline) was 101 % of control and 106 % of control.

`CNc1nc(Nc2ccc(C3=NCCN3)cc2)nc(Nc2ccc(C3=NCCN3)cc2)n1` was tested, and the T/C (dose: 13.3 mg/kg/injection, schedule: Q01DX010 (ip), vehicle: saline) was 100 % of control, the T/C [12] was 94 % of control and the T/C [16] was 99 % of control. For the same molecule, the T/C (dose: 45.0 mg/kg/injection, schedule: Q01DX010 (ip), vehicle: saline) was 97 % of control.

For `Nc1ncnc2c1ccn2C1OC(CO)C(O)C1O` (stereo not given), the T/C (dose: 0.23 mg/kg/injection, schedule: Q01DX Z (ip), vehicle: saline) was 98 % of control, the T/C (dose: 0.47 mg/kg/injection, schedule: Q01DX Z (ip), vehicle: saline) was 113 % of control and the T/C (dose: 0.93 mg/kg/injection, schedule: Q01DX Z (ip), vehicle: saline) was 109 % of control. The T/C (dose: 1.87 mg/kg/injection, schedule: Q01DX Z (ip), vehicle: saline) was 116 % of control and the T/C [1] was 103 % of control.

For `CSc1ncnc2c1ncn2C1OC(CO)C(O)C1O` (stereo not given), the T/C (dose: 4.0 mg/kg/injection, schedule: Q01DX010 (ip), vehicle: saline) was 105 % of control, the T/C (dose: 5.5 mg/kg/injection, schedule: Q01DX Z (ip), vehicle: saline) was 117 % of control and the T/C (dose: 8.0 mg/kg/injection, schedule: Q01DX010 (ip), vehicle: saline) was 116 % of control. The T/C (dose: 15.0 mg/kg/injection, schedule: Q01DX010 (ip), vehicle: saline) was 151 % of control, the T/C (dose: 16.0 mg/kg/injection, schedule: Q01DX010 (ip), vehicle: saline) was 122 % of control and the T/C [12] was 162 % of control. For the same molecule, the T/C (dose: 37.5 mg/kg/injection, schedule: Q01DX Z (ip), vehicle: saline) was 154 % of control, the T/C [9] was 101 % of control and the T/C [10] was 88 % of control.
